Experimental data published in patent US20180147206A1, “ACTIVATION OF NEURONAL STORE-OPERATED CALCIUM ENTRY PATHWAY FOR THE TREATMENT OF ALZHEIMER'S DISEASE” (The Board of Regents of the University of Texas System, priority 2015, published 2018).

How the values were obtained:
hippocampal LTP = assay: Hippocampal slice field recordings (LTP); format: cell-based, mouse; settings: pre-treatment 300 nM for 2-3 hours
Experimental: (§1) FIGS. 6A-E. NSN21778 rescues mushroom spine and synaptic plasticity defects in AD hippocampal slices. (FIG. 6A) Confocal images of CA1 hippocampal slices from 6 month-old WTGFP, PS1KIGFP, and APPKIGFP mice. The images are shown for untreated slices (CON) and for slices treated with 300 nM NSN21778 (+NSN) for 3.5 hrs prior to fixation. Scale bar is 10 μm. (FIG. 6B) The fraction of mushroom spines in hippocampal CA1 neurons from 6 month-old WTGFP, PS1KIGFP, and APPKIGFP mice. The results are shown for untreated slices (CON) and for slices treated with 300 nM NSN21778 (+NSN). The average fraction of mushroom spines for each group of cells is shown as mean±SE (n≥31 neurons). ***, p <0.001. (FIG. 6C) Sample fEPSP traces are shown for 6 month-old WT and APPKI hippocampal slices prior to stimulation (basal), immediately after tetanus stimulation (induction) and 1 h after tetanus stimulation (after 1 hr). The results are shown for untreated slices and for slices pre-treated with 300 nM NSN21778 (+NSN) for 2-3 hours prior to tetanus stimulation. […]
Hippocampal slice field recordings. […] Field potentials (FPs) were recorded with extracellular recording electrodes (1 MΩ) filled with ACSF and placed in stratum radiatum of area CA1. […] The initial slope of the FPs was used to measure stability of synaptic responses and quantify the magnitude of LTP. […]

[1] = test system: mushroom spines in hippocampal CA1 neurons; assay: Dendritic spine analysis in hippocampal slice; format: cell-based, mouse; settings: 6 month-old mice, 300 nM for 3.5 hours
Experimental: as §1, with “stimulation. (FIG. 6D) The normalized and averaged fEPSP slope is shown as a function of time in the experiments with 6 month-old wild-type and APPKI slices with (+NSN) or without 300 nM NSN21778 pre-treatment.” for “stimulation.”
Dendritic Spine Analysis in Hippocampal slice. […] Approximately 25 neurons from 5 mice were analyzed for each genotype. […]

## CC(=O)Nc1ccc(CCNc2ncnc3ccc(N)cc23)cc1 [NSN21778, N-{4-[2-(6-Amino-quinazolin-4-ylamino)-ethyl]-phenyl}-acetamide]
Hippocampal LTP; APPKI slices, 6 month-old
  LTP defect: completely rescued
Hippocampal LTP; wild-type slices
  LTP: no significant effect
[1]; PS1KIGFP and APPKIGFP hippocampal slices
  mushroom spines: complete rescue
[1]; WTGFP slices
  mushroom spines: no effect
